Experimental data: PubChem BioAssay (NCI)
Where “and” joins values, the source holds several entries; their conditions need not be identical. Identical values can stand only once.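 How tested: cells in 96-well plates exposed to compound for 48 hours at five concentrations. GI50 marks 50% less growth. TGI: total growth inhibition.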

Assays:
Test in all cases: inhibition of tumour cell growth, NCI panel, 48 h
[1] = test system: U251 CNS
[2] = test system: MCF7 breast
[3] = test system: 786-0 renal
[4] = test system: SN12C renal
[5] = test system: HL-60(TB) leukemia
[6] = test system: ACHN renal
[7] = test system: T-47D breast
[8] = test system: K-562 leukemia
[9] = test system: A549 NSCLC
[10] = test system: MOLT-4 leukemia

CCN(CC(O)COc1ccc2c(c1)[n+]([O-])nc(N)[n+]2[O-])C(C)=O (stereo unspecified)
TGI [1]: > 100 µM
TGI [2]: > 100 µM
TGI [3]: > 100 µM
TGI [4]: > 100 µM
TGI [5]: > 100 µM
TGI [6]: > 100 µM
TGI [7]: > 100 µM
TGI [8]: > 100 µM
TGI [9]: > 100 µM
TGI [10]: > 100 µM

S=C1NC(c2ccccc2)NC(c2ccccc2)S1 (stereo unspecified)
TGI [1]: > 100 µM
TGI [2]: > 100 µM
TGI [3]: > 100 µM
TGI [4]: > 100 µM
TGI [5]: > 100 µM
TGI [6]: > 100 µM
TGI [7]: > 100 µM
TGI [8]: > 100 µM
TGI [9]: > 100 µM
TGI [10]: > 100 µM

CC(=O)Nc1ccc2c(c1)[nH]c(=O)c1cc(NC(C)=O)ccc12
GI50 [1]: 52 µM
TGI [1]: > 100 µM
GI50 [2]: > 100000 nM
TGI [2]: > 100 µM
GI50 [3]: > 100 µM
TGI [3]: > 100 µM
GI50 [4]: > 100 µM
TGI [4]: > 100 µM
GI50 [5]: 26600 nM
TGI [5]: > 100 µM
GI50 [6]: > 100000 nM
TGI [6]: > 100 µM
GI50 [7]: > 100 µM
TGI [7]: > 100 µM
GI50 [8]: 59500 nM
TGI [8]: > 100 µM
GI50 [9]: > 100000 nM
TGI [9]: > 100 µM
GI50 [10]: 20000 nM
TGI [10]: 50 µM

Clc1ccc(Nc2nnc(COc3ccccc3)c3ccccc23)cc1
GI50 [1]: 2.93 µM
TGI [1]: 7.47 µM
GI50 [2]: 1180 nM
TGI [2]: 6.07 µM
GI50 [3]: 2.6 µM
TGI [3]: 8.11 µM
GI50 [4]: 2.12 µM
TGI [4]: 8.07 µM
GI50 [5]: 3560 nM
TGI [5]: 11.9 µM
GI50 [6]: 2350 nM
TGI [6]: 25 µM
GI50 [7]: 0.881 µM
TGI [7]: 8.44 µM
GI50 [8]: 1850 nM
TGI [8]: 11.9 µM
GI50 [9]: 2870 nM
TGI [9]: 12.3 µM
GI50 [10]: 1060 nM
TGI [10]: 6.7 µM

C[C@H]1O[C@@H](O[C@H]2[C@@H](O)C[C@H](O[C@H]3[C@@H](O)C[C@H](O[C@H]4CC[C@]5(C)C6CC[C@]7(C)[C@@H](C8=CC(=O)OC8)CC[C@]7(O)C6CC[C@@H]5C4)O[C@@H]3C)O[C@@H]2C)C[C@H](O)[C@@H]1O (stereo partly specified)
GI50 [1]: 0.0186 µM
TGI [1]: 0.0676 µM
GI50 [2]: 18.1 nM
TGI [2]: 0.11 µM
GI50 [3]: 0.0172 µM
TGI [3]: 0.0596 µM
GI50 [4]: 0.0167 µM
TGI [4]: 0.112 µM
GI50 [5]: 11.4 nM
TGI [5]: 0.0261 µM
GI50 [6]: 12.6 nM
TGI [6]: 0.0391 µM
GI50 [7]: 0.0172 µM
TGI [7]: 0.0608 µM
GI50 [8]: 15.9 nM
TGI [8]: 0.0799 µM
GI50 [9]: 7.76 nM
TGI [9]: 0.0155 µM
GI50 [10]: 11.3 nM
TGI [10]: 0.0341 µM

C=C1CC2(CC(c3ccccc3C)OC(c3ccccc3C)C2)OC1=O (stereo unspecified)
TGI [1]: 25.9 µM
TGI [2]: 3.87 µM
TGI [3]: 4.74 µM
TGI [4]: 4.42 µM
TGI [5]: 11.6 µM
TGI [6]: 6.06 µM
TGI [7]: 3.21 µM
TGI [8]: 5.09 µM
TGI [9]: 19.4 µM
TGI [10]: 21.4 µM

C/C=C1/CN2CCC34c5ccccc5N5C(=O)C(C6CC78c9ccccc9N9C(=O)C=CC(C%10CC7N6C/C%10=C/C)C98)=CC(C1CC23)C54 (stereo unspecified)
GI50 [1]: 4.66 µM
TGI [1]: 12.1 µM and 17.3 µM
GI50 [2]: 2900 nM
TGI [2]: 8.15 µM and 12 µM
GI50 [3]: 5.51 µM
TGI [3]: 11.3 µM and 20.1 µM
GI50 [4]: 11.9 µM
TGI [4]: 14.5 µM and 26.8 µM
GI50 [5]: 2700 nM
TGI [5]: 1.36 µM and 10.2 µM
GI50 [6]: 11700 nM
TGI [6]: 13.6 µM and 24.3 µM
TGI [7]: 33.6 µM
TGI [8]: 50 µM
GI50 [9]: 14100 nM
TGI [9]: 18.9 µM and 32.3 µM
TGI [10]: 5.56 µM

COc1ccc(COc2ccc(Cc3cnc(N)nc3N)cc2OC)cc1
GI50 [1]: 21.4 µM
TGI [1]: > 25 µM
GI50 [2]: 11700 nM
TGI [2]: > 25 µM
GI50 [3]: > 25 µM
TGI [3]: > 25 µM
GI50 [4]: > 25 µM
TGI [4]: > 25 µM
GI50 [5]: > 20600 nM
TGI [5]: > 25 µM
GI50 [6]: > 25000 nM
TGI [6]: > 25 µM
GI50 [7]: 7.08 µM
TGI [7]: > 25 µM
GI50 [8]: 8190 nM
TGI [8]: > 25 µM
GI50 [9]: > 23400 nM
TGI [9]: > 25 µM
GI50 [10]: > 25000 nM
TGI [10]: > 25 µM

O=C(Nc1ccc([N+](=O)[O-])cc1Cl)c1cc(Cl)ccc1O
GI50 [1]: 0.0971 µM and 0.217 µM
GI50 [2]: 151 nM and 286 nM
GI50 [3]: 0.142 µM and 0.268 µM
TGI [3]: 0.488 µM and 0.825 µM
GI50 [4]: 0.115 µM and 0.195 µM
GI50 [5]: 115 nM
TGI [5]: 0.244 µM
GI50 [6]: 155 nM and 258 nM
TGI [6]: 19.4 µM
GI50 [7]: 0.107 µM and 0.188 µM
TGI [7]: 0.361 µM and 0.836 µM
GI50 [8]: 120 nM and 210 nM
GI50 [9]: 163 nM and 327 nM
TGI [9]: 23.4 µM and > 100 µM
GI50 [10]: 121 nM and 273 nM
TGI [10]: 0.374 µM and 1.03 µM

Cc1ccc(O)c(C(=O)/C=C/c2ccccc2)c1
TGI [1]: > 100 µM
TGI [2]: > 100 µM
TGI [3]: > 100 µM
TGI [4]: > 100 µM
TGI [5]: > 100 µM
TGI [6]: > 100 µM
TGI [7]: > 100 µM
TGI [8]: > 100 µM
TGI [9]: > 100 µM
TGI [10]: > 100 µM

Cc1cc(C(=O)NOCCO)c(Nc2ccc(I)cc2F)n(C)c1=O
GI50 [1]: > 10 µM and 2.81 µM
TGI [1]: > 100 µM
GI50 [2]: > 100000 nM
TGI [2]: > 100 µM
GI50 [3]: > 83.9 µM
TGI [3]: > 100 µM
GI50 [4]: 12.3 µM
TGI [4]: > 100 µM
GI50 [5]: 1.73 nM and < 10 nM
TGI [5]: > 49.6 µM
TGI [6]: > 100 µM
GI50 [7]: > 10 µM and 78.9 µM
TGI [7]: > 100 µM
GI50 [8]: 321 nM and 190 nM
TGI [8]: > 100 µM
TGI [9]: > 100 µM
GI50 [10]: > 100000 nM
TGI [10]: > 100 µM

Cc1ccccc1N=C(c1ccccc1)C1C(=O)c2ccccc2C1=O
GI50 [1]: 24.6 µM
TGI [1]: > 100 µM
GI50 [2]: 1480 nM
TGI [2]: 19.3 µM
GI50 [3]: 7.05 µM
TGI [3]: 36 µM
GI50 [4]: 19.9 µM
TGI [4]: > 100 µM
GI50 [5]: 9490 nM
TGI [5]: 32.6 µM
GI50 [6]: 19000 nM
TGI [6]: 62.4 µM
GI50 [7]: 4.12 µM
TGI [7]: 36.5 µM
GI50 [8]: 25600 nM
TGI [8]: > 100 µM
GI50 [9]: 12300 nM
TGI [9]: > 100 µM
GI50 [10]: 9980 nM
TGI [10]: 35.7 µM

Nc1[nH]c(=S)[nH]c(=O)c1N=Nc1c(Br)cc(S(N)(=O)=O)cc1Br
TGI [1]: > 100 µM
TGI [2]: > 100 µM
TGI [3]: > 100 µM
TGI [4]: > 100 µM
TGI [5]: > 100 µM
TGI [6]: > 100 µM
TGI [7]: > 100 µM
TGI [8]: > 100 µM
TGI [9]: > 100 µM
TGI [10]: > 100 µM

Cc1cccc(Nc2ncc(-c3ccccc3)o2)c1
GI50 [1]: > 25 µM
TGI [1]: > 25 µM
GI50 [2]: 12900 nM
TGI [2]: > 25 µM
GI50 [3]: > 25 µM
TGI [3]: > 25 µM
GI50 [4]: > 25 µM
TGI [4]: > 25 µM
GI50 [5]: > 25000 nM
TGI [5]: > 25 µM
GI50 [6]: > 25000 nM
TGI [6]: > 25 µM
GI50 [7]: > 25 µM
TGI [7]: > 25 µM
GI50 [8]: > 25000 nM
TGI [8]: > 25 µM
GI50 [9]: > 25000 nM
TGI [9]: > 25 µM
GI50 [10]: > 25000 nM
TGI [10]: > 25 µM

O=C(Nc1ccn(C2CCC(COC(c3ccccc3)(c3ccccc3)c3ccccc3)O2)c(=O)n1)c1ccccc1 (stereo unspecified)
TGI [1]: 13.8 µM
TGI [2]: 10.2 µM
TGI [3]: 6.41 µM
TGI [4]: 4.33 µM
TGI [5]: 4.7 µM
TGI [6]: 9.74 µM
TGI [7]: 27.9 µM
TGI [8]: 7.97 µM
TGI [9]: 13 µM
TGI [10]: 5.16 µM
